Structures can show the parent of a compound that is named as a salt.
Assays:
[1] = target: Sodium-dependent dopamine transporter (Rattus norvegicus, UniProt P23977)
[2] = target: Norepinephrine transporter (Rattus norvegicus, UniProt Q9JIA2)
[3] = target: T1, Muscarinic acetylcholine receptor M2 (Rattus norvegicus, UniProt P10980)
T1 sequence (P10980 whole entry): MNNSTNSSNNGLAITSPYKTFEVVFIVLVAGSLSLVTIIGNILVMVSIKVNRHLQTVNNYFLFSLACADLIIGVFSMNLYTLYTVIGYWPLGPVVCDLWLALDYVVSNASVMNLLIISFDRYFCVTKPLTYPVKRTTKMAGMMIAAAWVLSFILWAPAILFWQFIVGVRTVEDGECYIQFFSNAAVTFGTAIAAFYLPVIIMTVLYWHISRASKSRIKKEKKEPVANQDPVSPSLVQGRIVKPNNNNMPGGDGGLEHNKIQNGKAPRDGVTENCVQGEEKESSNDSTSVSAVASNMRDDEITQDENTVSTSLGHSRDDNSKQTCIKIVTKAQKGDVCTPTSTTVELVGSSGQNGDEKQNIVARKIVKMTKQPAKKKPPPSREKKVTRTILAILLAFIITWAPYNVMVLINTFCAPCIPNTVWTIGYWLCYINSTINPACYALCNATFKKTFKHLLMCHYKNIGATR

Sequence of Sodium-dependent dopamine transporter (P23977 whole entry): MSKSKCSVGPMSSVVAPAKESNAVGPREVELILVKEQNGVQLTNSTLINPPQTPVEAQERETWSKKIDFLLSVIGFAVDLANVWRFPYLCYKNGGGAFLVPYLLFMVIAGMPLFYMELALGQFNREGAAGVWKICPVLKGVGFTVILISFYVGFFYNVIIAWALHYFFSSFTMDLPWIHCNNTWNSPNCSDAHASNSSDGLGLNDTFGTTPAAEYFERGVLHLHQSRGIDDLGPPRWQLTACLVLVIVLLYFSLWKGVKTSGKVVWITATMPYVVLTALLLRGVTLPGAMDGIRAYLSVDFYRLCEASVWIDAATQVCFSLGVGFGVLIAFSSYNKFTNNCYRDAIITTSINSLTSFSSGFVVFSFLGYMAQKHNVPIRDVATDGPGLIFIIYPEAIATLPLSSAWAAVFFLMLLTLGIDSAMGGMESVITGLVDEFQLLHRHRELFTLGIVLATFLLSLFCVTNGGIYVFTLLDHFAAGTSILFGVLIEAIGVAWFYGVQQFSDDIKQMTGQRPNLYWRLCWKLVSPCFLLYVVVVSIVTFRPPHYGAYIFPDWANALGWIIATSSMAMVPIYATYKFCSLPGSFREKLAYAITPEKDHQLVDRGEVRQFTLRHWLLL

Structure (SMILES)	Ki [3]	Ki [1]	Ki [2]
CNC/C=C(/c1ccc(Br)cc1)c1cccnc1	–	> 10 µM	–
CN(C)CCC=C1c2ccccc2CCc2ccccc21	0.32 µM	> 10 µM	0.13 µM
N[C@H]1CC[C@@H](c2ccc(Cl)c(Cl)c2)c2ccccc21	–	3.8 µM	4.6 µM
CN[C@@H]1CC[C@@H](c2ccccc2)c2ccccc21	4.7 µM	0.15 µM	0.018 µM
COCCCC/C(=N\OCCN)c1ccc(C(F)(F)F)cc1 [(1E)-5-methoxy-1-[4-(trifluoromethyl)phenyl]pentan-1-one O-(2-aminoethyl)oxime]	–	> 10 µM	1.9 µM
CN(C)CCCN1c2ccccc2CCc2ccc(Cl)cc21 [CLOMIPRAMINE HYDROCHLORIDE]	–	8.1 µM	–
CNCCC=C1c2ccccc2CCc2ccccc21 [NORTRIPTYLINE]	–	> 10 µM	0.025 µM
CN(C)C/C=C(/c1ccc(Br)cc1)c1cccnc1 [cis-[3-(4-Bromo-phenyl)-3-pyridin-3-yl-allyl]-dimethyl-amine;HCl]	–	> 10 µM	–

Second part, led by results:

Ki [3]	Structure (SMILES)	Ki [1]	Ki [2]
0.71 µM	CN(C)CC/C=C1/c2ccccc2COc2ccccc21	–	–
3.5 µM	CNCCCN1c2ccccc2CCc2ccccc21 [Desmethylimipramine]	–	–
> 10 µM	CN[C@@H]1CC[C@@H](c2ccc(Cl)c(Cl)c2)c2ccccc21 [[4-(3,4-Dichloro-phenyl)-1,2,3,4-tetrahydro-naphthalen-1-yl]-methyl-amine]	–	–
